These are literature values, as cited in patent publication US20170027908A1, “Pharmaceutical Composition” (CIPLA Limited, priority 2011, published 2017).

In data set [1] the test system is airway hyperresponsiveness. Conditions: as compared to fluticasone propionate.
For data set [2] the following is noted: in vivo.

As to `C[C@@H]1C[C@H]2[C@@H]3C[C@H](F)C4=CC(=O)C=C[C@]4(C)[C@@]3(F)[C@@H](O)C[C@]2(C)[C@@]1(OC(=O)c1ccco1)C(=O)SCF` [fluticasone furoate], the “prolonged protection against airway hyperresponsiveness” value in data set [1] is reported as “up to 26 hours”. Moreover, in data set [2], the elimination half life was 15.1 h.
